According to US20080288176A1 (priority 2005, published 2008):
Where two headings read alike, the source gives them in different places.

Experiments:
[1] = tested on: male Wistar rats; experiment: Urine N-acetylglucosaminidase to creatinine ratio (distal tubule toxicity); format: in vivo, rat; conditions: oral gavage, urine collected for 6 hours
Method: (§1) Table 1 is a summary of the protocol for a study which was conducted in male Wistar rats weighing 275-300 grams. The animals were allowed to acclimatize for at least five days prior to the commencement of the study. The study protocol was approved by the local animal ethics committee.
(§2) All test animals, housed in metabolic cages, had urine collected over wet ice for 6 hours after dosing. Aliquots of the urine from each animal were collected to determine creatinine concentration. The remainder of the urine was centrifuged at 1000 g for 10 minutes. The supernatant was collected and mixed with analytical grade ethylene glycol at a rate of 0.4 mL ethylene glycol per 1 mL urine supernatant. The ethylene glycol/urine mixture was stored at −80° C. until analysis.

[2] = Serum nitrate concentration (NO release) after oral dosing; format: in vivo, rat; conditions: male Wistar rats, oral gavage, at 6 hours
Method: as §1
(§3) The animals were fasted overnight prior to test substance administration. The test substance was administered orally by gavage on the morning of the study day. All test animals had blood collected during the test period in both EDTA (ethylenediaminetetraacetic acid) tubes and SST (Serum Separator Tubes) at 1, 3 and 6 hours after dosing. Blood was collected into EDTA tubes only at 1 and 3 hours by tail tip amputation. Volume of blood collected was between 0.5 and 1 mL at each of these collections. The final collection was by puncture of the abdominal vena cava under isoflurane general anesthesia. Final blood collection was targeted as follows: 1st EDTA #1—1.5 mL; 2nd SST—1.5 mL; 3rd EDTA #2—as much as possible.
EDTA samples were centrifuged, and the plasma portion was collected and frozen at −80° C. SST samples were incubated at 37° C. for approximately 45 minutes, centrifuged, and the serum was collected and frozen at −80° C. until analysis.

[3] = tested on: male Wistar rats; experiment: Urine alanine aminopeptidase to creatinine ratio (proximal tubular kidney damage); format: in vivo, rat; conditions: oral gavage, urine collected for 6 hours
Text: (§4) Myocardial infarction and ischemic events in high risk patients led one of the most popular COX-2 inhibitors to its demise (Bresalier et al., 2005). Non-selective NSAIDS may also cause similar problems due to their ability to inhibit COX-2. […] Adenosine diphosphate (ADP) generation is an indicator of myocardial infarction which has no connection with the arachidonic acid cascade (Borna et al., 2005). […] Long term NSAID use has been linked to kidney damage and hypertension (Zafirovska et al., 1993). […] This was associated with an increase in the urine the ratio of alanine-amino-peptidase (AAP) and creatinine.
as §1, §2

[4] = Human; estimated from Table II - Runkle, 1972; cited from earlier work
[5] = tested on: male Wistar rats; experiment: Gastric ulcer index after oral dosing; format: in vivo, rat
Method: as §1, §3
Each animal from all groups underwent a full necropsy under the supervision of a board certified veterinary pathologist. The stomach of each rat was cut along the greater curvature, contents removed into a polypropylene (Falcon) tube, the mucosa rinsed with saline and any obvious ulcers or erosions were measured along the longest axis. This measurement was recorded for each ulcer or erosion observed in each stomach. The falcon tubes and their contents were frozen at −80° C. and shipped to Novokin on dry ice for analysis.
The aggregate length of all gastric ulcers found in a given animal was calculated. The mean aggregate ulcer length across animals in a group was calculated. This mean value was reported as the ulcer index for that group.
The ulcer index of each modified drug was compared with the ulcer index of its associated parent drug and the controls using analysis of variance and Duncan's multiple range test for pairwise comparisons. Statistical analysis was done using SAS® (SAS Institute Inc., Cary, N.C.).

[6] = Rat; estimated from Table II - Runkle, 1972; cited from earlier work
[7] = tested on: cardiac tissue prostacyclin (PGI2) to thromboxane A2 (TXB2) ratio; experiment: Cardiac tissue prostacyclin to thromboxane ratio; format: in vivo, rat; conditions: male Wistar rats
Text: as §4, §1
All rats were euthanized by removal of the heart 6 hours after initial dosing, following final blood collections. Immediately after terminal blood collections were complete, the thorax was opened and the heart removed. The heart was cut in half longitudinally. Half of the heart was placed in formalin for histological examination. The other half was quickly rinsed in saline and then freeze-clamped (crushed between the jaws of a pair of modified tongs, cooled by liquid nitrogen). An entire kidney was freeze-clamped. The other kidney was left in situ for examination by the pathologist. Freeze-clamped tissues were wrapped in labeled aluminum foil and stored in liquid nitrogen until they could be transferred to a −80° C. freezer. Freeze-clamped tissues were shipped on dry ice to NOVOKIN for analysis.

[8] = Enzymatic hydrolysis in intestinal microsomal preparations (LC-MS); format: in vitro ADME; conditions: after 2 hours
Method: (§5) The sensitivity of the prodrug 3 towards enzymatic hydrolysis was evaluated by LC-MS. Liver and intestinal microsomal preparations were used. […] However, these rates were slower than the enzymatic hydrolysis rates determined for the conversion of 1→4 and 2→5 (complete hydrolysis observed in 10 and 30 minutes respectively in liver microsomal preparations).

[9] = Chemical stability (loss of diazeniumdiolate) in phosphate buffer; format: physicochemical
Method: They varied only in the nitrogen substituent of the amino acid, i.e. free amine (1), acetyl (2) and pivaloyl (3) groups. Their chemical stability was evaluated in phosphate buffer at different pH's over a 30 minute period (Table 11).

[10] = Enzymatic hydrolysis in liver microsomal preparations (LC-MS); format: in vitro ADME; conditions: liver microsomal preparations
Method: as §5

[11] = Stability in gastric environment (gastric decay rate); format: in vitro ADME
Text: (§6) The physiologically based pharmacokinetic/pharmacodynamic model of the present invention contains a series of compartments that describe the time course of a nonsteroidal anti-inflammatory prodrug, its active metabolites and nitric oxide release in intestine, liver, kidneys, blood/plasma and heart after prodrug administration. The time course of the prodrug, its active metabolites and nitric oxide release can be simulated using a series of in vitro and in silico inputs. The stability of each component in the gastrointestinal lumen is estimated using data collected from artificial gastric and intestinal juice. Intestinal metabolism is estimated using intestinal microsomes and absorption rate is estimated using permeability data collected from a cell monolayer such as Caco-2. Hepatic elimination is estimated using liver microsomes and stability in plasma is calculated using degradation of each component in the media. Plasma protein binding can either be measured using a standardized in vitro method or it can be estimated using an in silico method. The distribution of each component in various parts of the body is estimated using an in silico method. The rate of nitric oxide release is estimated using an in vitro endothelial cell model. The time course of prodrug, its active metabolites and nitric oxide can be simulated in human and animal using this physiologically based pharmacokinetic/pharmacodynamic model provided that the corresponding in vitro and in silico data are used as inputs.
(§7) Representative in vitro tests or in silico estimates include: (a) pKa estimation or measurement; (b) Log P measurement or in silico estimation; (c) Solubility in various physiological fluids; (d) Permeability. Caco-2 and/or NOVOKIN's proprietary animal and human cell lines can be used to obtain this parameter; (e) Metabolic rate in the intestine and liver. Human or animal intestinal microsomes, S9 fraction, and cytosol can be used for this purpose. Human or animal hepatocytes, liver microsomes, S9 fraction, and cytosol can also be used; (f) Hydrolysis in human or animal plasma; (g) Serum or plasma protein binding. It can be measured in vitro or estimated in silico; (h) The rate of NO release; (i) Existing pharmacokinetic and pharmacodynamic data of NSAID or a biocompatible agent; (j) Existing NO release rate of known diazeniumdiolate if applicable; (k) Stability in gastric and intestinal environment; and (l) In silico volume of distribution estimation.

[12] = Hydrolysis in human liver microsomes; format: in vitro ADME
Text: as §6, with “The” for “The physiologically based pharmacokinetic/pharmacodynamic model of the present invention contains a series of compartments that describe the time course of a nonsteroidal anti-inflammatory prodrug, its active metabolites and nitric oxide release in intestine, liver, kidneys, blood/plasma and heart after prodrug administration. The”
The selection of in vitro tests is designed to provide parameters for the above mentioned model. The use of an inappropriate test would result in wrong predictions.
as §7
The simulation begins with no material in all compartments except for the initial bolus in one compartment (typically the stomach compartment). The simulation then estimates the changing distribution of the material with time.

[13] = Hydrolysis in human intestinal microsomes; format: in vitro ADME
Text: as §6
The selection of in vitro tests is designed to provide parameters for the above mentioned model. The use of an inappropriate test would result in wrong predictions. For example, Knaus et al. (2005) used guinea pig serum and porcine esterases to hydrolyze their O^2-substituted diazeniumdiolate derivatives of ASPIRIN, as disclosed in U.S. Ser. No. 60/681,842. These tests provided very little information in terms of in vivo human NO-NSAID metabolism rate and the extent to which metabolic conversion to NO donor and NSAID occurred. […] The half-life values were less than one minute. Based on these observations, it has become apparent that prior to entering the systemic circulation, it is likely that the NO-NSAID would have been hydrolyzed in the enterocytes and little or no NO-NSAID would have been detected in the blood stream. Furthermore, the release of NO will commence immediately once the NO donor is detached from the NSAID.
as §7
(§8) Whenever in vitro estimate is attainable, the in vitro results will be used, for example, plasma protein binding. Methods reported by Bowalgaha & Miners (2001), Martignoni et al. (2006), Tong et al. (2001) and Thulesen et al. (1999) were used for in vitro and in vivo scale-up for clearance in the intestine, absorption rate constant and hepatic clearance. The simulation begins with no material in all compartments except for the initial bolus in one compartment (typically the stomach compartment). The simulation then estimates the changing distribution of the material with time.

[14] = Hydrolysis in various enzymatic preparations (rat and human intestinal and liver microsomes)
[15] = Hydrolysis in rat plasma; format: in vitro ADME
Text: as §6, §7

[16] = Hydrolysis in rat intestinal microsomes; format: in vitro ADME
Text: as §6, §7, §8

[17] = Hydrolysis in rat liver microsomes; format: in vitro ADME
Text: as §6, §7, §8

[18] = Stability in intestinal lumen (decay rate); format: in vitro ADME
Text: as §6, §7

In the case of `COc1ccc2cc([C@H](C)C(=O)O)ccc2c1` [NAP, naproxen], the “Urine NAG/Cr values, Mean” value [1] was 30.865, the “Serum Nitrate Concentrations, Mean” value [2] was 55.167 and the “AAP/Cr (urine alanine aminopeptidase to creatinine), Mean” value [3] was 263.788. The liver microsomal activity [4] was 0.0092 mL/min/organ, the “Ulcer Indices, Mean” value ([5]; oral gavage, naproxen 250 mg/kg or molar equivalent (ROF 250 mg/kg), 6 h after dosing, mean aggregate gastric ulcer length) was 4.282 and the “Ulcerogenicity (in words)” value ([5]; oral, 6 h) was “severely ulcerogenic”. The liver microsomal activity [6] was 0.0075 mL/min/organ, the “PGI2 and TXA2 levels (in words)” value ([7]; cardiac tissue) was “lowered both PGI2 and TXA2 levels” and the “Cardiac Tissue PGI2/TXB2, Mean” value ([7]; oral gavage, heart removed 6 hours after dosing) was 4.544.
For `COc1ccc2cc(C(C)C(=O)OC3CC(C(=O)OCO/N=[N+](\[O-])N(C)C)N(C(=O)C(C)(C)C)C3)ccc2c1` (centres unmarked) [Compound 3], the “Conversion to NSAID-amino acid (cleavage of the diazeniumdiolate)” value [8] was 50%, the “Stability (loss of diazeniumdiolate), pH 2.5” value ([9]; 30 min, pH 2.5) was “✓” and the “Stability (loss of diazeniumdiolate), pH 5.0” value ([9]; 30 min, pH 5.0) was “✓”. The “Stability (loss of diazeniumdiolate), pH 7.0” value ([9]; 30 min, pH 7.0) was “✓”, the “Chemical stability (in words)” value ([9]; pH range 2.5-7.0, 30 minute period) was “stable” and the “Time to complete hydrolysis (cleavage of the diazeniumdiolate)” value [10] was 2 h.
With `COc1ccc2cc(C(C)C(=O)OCOC(=O)CCC(NC(=O)C(C)(C)C)C(=O)OCON=[N+]([O-])N(C)C)ccc2c1` (centres unmarked) [CMD 113] the “gastric decay rate constant” value ([11]; Human) was 0 /mint, the “gastric decay rate constant” value ([11]; Rat) was 0 /mint and the “liver molar percent conversion to Naproxen” value [12] was 72%. For the same compound, the liver microsomal activity ([12]; model input) was 434763 mL/min/organ, the “intestinal molar percent conversion to Naproxen” value [13] was 75% and the intestinal microsomal activity ([13]; model input) was 4813 mL/min/organ. For the same compound, the “Stability of the NO-AA formed (in words)” value ([14]; intestinal and liver microsomes of human and rats) was “relatively stable”, the “Initial loss of the prodrug candidate (in words)” value ([14]; various enzymatic preparations) was “rapid initial loss” and the “Hydrolysis of the NO-AA in rat plasma (in words)” value ([15]; NO-AA formed from the prodrug) was “relatively fast rate”. For the same compound, the “plasma decay rate constant” value ([15]; Rat) was 1.2 min⁻¹, the “NO-AA half-life in plasma” value ([15]; Rat, NO-AA formed from the prodrug) was 9.2 min and the “intestinal molar percent conversion to Naproxen” value [16] was 62%. For the same compound, the intestinal microsomal activity ([16]; model input) was 2 mL/min/organ, the “liver molar percent conversion to Naproxen” value [17] was 90% and the liver microsomal activity ([17]; model input) was 6545 mL/min/organ. For the same compound, the “intestinal lumen decay rate constant” value ([18]; Human) was 0.2 min⁻¹ and the “intestinal lumen decay rate constant” value ([18]; Rat) was 0.2 min⁻¹.
